Reference: patent US20070092474A1, “Carnitine salt, preliposome which contains it and dermocosmetic formula for topical use based upon said carnitine salt” (priority 2003, published 2007)
“And” between values parts separate entries of the source, which are not always exact repeats. Equal values may be shown once.

Test system: skin blemishes caused by cellulite and localised adiposity
Assay: Plicometry: skin plica thickness measured with a plicometer, dermatological test of the cosmetic gel
Assay type: in vivo, female volunteers
Parameters: RIGHT PLICOMETRY 1/3 T0 / RIGHT PLICOMETRY 3/3 T15 / RIGHT PLICOMETRY 3/3 T30 / RIGHT PLICOMETRY 3/3 T60 / RIGHT PLICOMETRY 1/3 T15 / RIGHT PLICOMETRY 1/3 T30 / RIGHT PLICOMETRY 1/3 T60 / RIGHT PLICOMETRY 2/3 T0 / RIGHT PLICOMETRY 2/3 T15 / RIGHT PLICOMETRY 2/3 T30 / RIGHT PLICOMETRY 2/3 T60 / RIGHT PLICOMETRY 3/3 T0 / LEFT PLICOMETRY 1/3 T0 / LEFT PLICOMETRY 3/3 T15 / LEFT PLICOMETRY 3/3 T30 / LEFT PLICOMETRY 3/3 T60 / LEFT PLICOMETRY 1/3 T30 / LEFT PLICOMETRY 1/3 T60 / LEFT PLICOMETRY 2/3 T0 / LEFT PLICOMETRY 2/3 T15 / LEFT PLICOMETRY 2/3 T30 / LEFT PLICOMETRY 2/3 T60 / LEFT PLICOMETRY 3/3 T0: unit not given beside the values
Protocol: A dermatological test was carried out on 25 female volunteers between 18 and 65 years of age, with the backing of the Department of Physiological and Pharmacological Sciences of the university of Pavia. The investigation aimed to check the modification of three anatomical-physiological parameters, qualifying the unaesthetic-functional aspect connected to the manifestation of so-called cellulite and subcutaneous hypertriglyceridaemia: measurement of the skin folds, measurement of the circumference of the thighs, thermographic skin measurement.
The test stretched out over 60 days with the continual daily application of the aforementioned preparation of cosmetic gel. The measurements were carried out after 15, 30 and 60 days. The detail of the test protocol and of the results obtained is shown hereafter.
25 female volunteers aged between 18 and 65, with the presence of skin blemishes caused by cellulite and localised adiposity, were selected according to the following criteria: good general state of health, absence of skin pathologies, not being under medication, commitment not to vary the normal daily routine, no medical history of atopy.
The samples were tested by uniformly applying them on “Glute SX Glute DJ (Femoris Posto SX Femoris Posto DX Femoris Ant. SX Femoris Ant. DX” every day at least once per day for the entire duration of the test.
At the time of inclusion in the study and during the subsequent checks after 15 days (T15), after 30 days (T30) and after 60 days (T60) of treatment the following instrumental measurements were taken: • plicometry (through a plicometer) • thigh circumference (through a measuring tape broken into millimetres) • contact thermography (through liquid crystal thermographic plates).
In particular, the plicometer used in the test constitutes the suitable instrument for measuring the skin plica thickness. Skin plicometry provides numerical data of particular use when the panniculopathic process of the cellulite is associated with localised adiposity.

[1] = MEDIA of 25 volunteers, T0 at inclusion, before treatment
[2] = MEDIA of 25 volunteers, after 15 days of daily gel application
[3] = MEDIA of 25 volunteers, after 30 days of daily gel application
[4] = MEDIA of 25 volunteers, after 60 days of daily gel application
[5] = individual volunteer, T0 at inclusion, before treatment
[6] = individual volunteer, after 15 days of daily gel application
[7] = individual volunteer, after 30 days of daily gel application
[8] = individual volunteer, after 60 days of daily gel application

carnitine hydroxycitrate [carnitine hydroxy citrate]
LEFT PLICOMETRY 1/3 T0, MEDIA [1]: 25.7 | LEFT PLICOMETRY 2/3 T0, MEDIA [1]: 29.6 | LEFT PLICOMETRY 3/3 T0, MEDIA [1]: 31.2 | RIGHT PLICOMETRY 1/3 T0, MEDIA [1]: 25.7 | RIGHT PLICOMETRY 2/3 T0, MEDIA [1]: 30.9 | RIGHT PLICOMETRY 3/3 T0, MEDIA [1]: 33.0 | LEFT PLICOMETRY 1/3 T15, MEDIA [2]: 25.3 | LEFT PLICOMETRY 2/3 T15, MEDIA [2]: 28.9 | LEFT PLICOMETRY 3/3 T15, MEDIA [2]: 30.6 | RIGHT PLICOMETRY 1/3 T15, MEDIA [2]: 24.4 | RIGHT PLICOMETRY 2/3 T15, MEDIA [2]: 29.6 | RIGHT PLICOMETRY 3/3 T15, MEDIA [2]: 32.3 | LEFT PLICOMETRY 1/3 T30, MEDIA [3]: 23.5 | LEFT PLICOMETRY 2/3 T30, MEDIA [3]: 27.3 | LEFT PLICOMETRY 3/3 T30, MEDIA [3]: 29.1 | RIGHT PLICOMETRY 1/3 T30, MEDIA [3]: 23.4 | RIGHT PLICOMETRY 2/3 T30, MEDIA [3]: 28.3 | RIGHT PLICOMETRY 3/3 T30, MEDIA [3]: 30.9 | LEFT PLICOMETRY 1/3 T60, MEDIA [4]: 22.5 | LEFT PLICOMETRY 2/3 T60, MEDIA [4]: 26.6 | LEFT PLICOMETRY 3/3 T60, MEDIA [4]: 28.2 | RIGHT PLICOMETRY 1/3 T60, MEDIA [4]: 22.7 | RIGHT PLICOMETRY 2/3 T60, MEDIA [4]: 27.7 | RIGHT PLICOMETRY 3/3 T60, MEDIA [4]: 29.9 | LEFT PLICOMETRY 1/3 T0 [5]: 23.3 and 17.8 and 35.9 and 24.9 (2×) and 21.1 and 25.9 and 19.8 and 26.7 and 26.0 and 31.1 and 26.6 and 19.7 and 22.9 (2×) and 24.6 and 32.8 and 28.1 and 24.0 and 30.8 and 27.9 and 22.8 and 34.6 and 16.8 and 30.5 | LEFT PLICOMETRY 2/3 T0 [5]: 28.7 and 22.6 and 38.8 and 24.8 and 27.1 and 28.9 and 28.1 and 40.9 and 33.9 and 30.8 and 27.6 and 24.3 and 27.8 and 20.6 and 31.8 and 29.9 and 22.9 and 27.2 and 25.4 and 35.4 and 39.7 and 25.3 and 41.6 and 23.5 and 32.5 | LEFT PLICOMETRY 3/3 T0 [5]: 34.9 and 21.8 and 37.9 and 27.8 and 30.8 and 33.3 and 26.8 and 41.6 and 28.1 and 35.9 (2×) and 35.3 and 20.6 and 33.5 (2×) and 20.1 and 20.3 and 37.2 and 17.8 and 34.1 and 41.5 and 22.9 and 40.9 and 28.9 and 38.1 | RIGHT PLICOMETRY 1/3 T0 [5]: 30.5 and 23.3 and 17.8 and 35.9 and 24.9 (2×) and 21.1 and 25.9 and 19.8 and 26.7 and 26.0 and 31.1 and 26.6 and 19.7 and 22.9 (2×) and 24.6 and 32.8 and 28.1 and 24.0 and 30.8 and 27.9 and 22.8 and 34.6 and 16.8 | RIGHT PLICOMETRY 2/3 T0 [5]: 37.2 and 30.8 and 26.7 and 32.8 and 20.9 and 29.2 and 36.8 and 26.3 and 34.9 and 35.5 and 33.5 and 29.7 and 24.8 and 29.9 and 22.4 and 31.2 and 33.7 and 27.7 and 26.8 and 25.3 and 37.8 and 41.5 and 28.8 and 39.8 and 27.0 | RIGHT PLICOMETRY 3/3 T0 [5]: 40.1 and 41.6 and 25.9 and 32.7 and 29.9 (2×) and 33.8 and 37.1 and 39.8 and 40.6 and 37.7 and 36.8 (2×) and 28.8 and 29.4 and 25.6 and 32.3 and 39.9 and 22.3 and 19.8 and 35.1 and 42.6 and 22.9 and 36.2 and 26.8 | LEFT PLICOMETRY 1/3 T15 [6]: 22.6 (3×) and 17.1 and 35.2 and 24.2 (2×) and 20.4 and 25.2 and 19.1 and 26.0 and 25.3 and 30.4 and 27.2 and 19.6 and 23.9 and 32.9 and 27.4 and 24.6 and 30.6 and 27.8 and 22.8 and 33.9 and 16.1 and 29.8 | LEFT PLICOMETRY 2/3 T15 [6]: 28.0 and 21.9 and 38.1 and 24.1 and 26.4 and 28.2 and 27.4 and 40.2 and 33.2 and 30.1 and 26.9 and 23.6 and 27.1 and 19.9 and 31.1 and 29.2 and 22.2 and 26.5 and 24.7 and 34.7 and 39.0 and 24.6 and 40.9 and 22.8 and 31.8 | LEFT PLICOMETRY 3/3 T15 [6]: 34.3 and 21.2 and 37.3 and 27.2 and 30.2 and 32.7 and 26.2 and 41.0 and 27.5 and 35.3 (2×) and 34.7 and 20.0 and 32.9 (2×) and 19.5 and 19.7 and 36.6 and 17.2 and 33.5 and 40.9 and 22.3 and 40.3 and 28.3 and 37.5 | RIGHT PLICOMETRY 1/3 T15 [6]: 29.0 and 22.0 and 16.5 and 34.5 and 23.5 (2×) and 19.6 and 24.5 and 18.4 and 25.3 and 24.2 and 30.0 and 27.1 and 19.5 and 23.0 and 23.2 and 31.0 and 20.3 and 26.7 and 22.6 and 29.4 and 26.5 and 21.4 and 33.2 and 15.4 | RIGHT PLICOMETRY 2/3 T15 [6]: 35.7 and 28.5 and 25.2 and 30.8 and 19.4 and 27.7 and 35.3 and 24.8 (2×) and 33.4 and 34.0 and 32.0 and 27.3 (2×) and 23.0 and 29.6 and 20.9 and 31.5 and 32.2 and 27.8 and 25.3 and 38.1 and 40.0 and 37.3 and 27.0 | RIGHT PLICOMETRY 3/3 T15 [6]: 40.0 (2×) and 24.9 and 31.7 and 28.9 (2×) and 32.8 and 37.5 and 39.6 and 39.8 and 37.8 and 35.9 and 28.2 and 28.4 and 26.1 and 32.0 and 38.9 and 21.3 and 37.0 and 18.8 and 34.1 and 41.6 and 21.9 and 34.9 and 25.8 | LEFT PLICOMETRY 1/3 T30 [7]: 21.0 and 15.5 and 33.6 and 22.6 and 18.8 and 23.6 and 17.5 and 24.4 and 23.7 and 28.8 and 24.3 and 17.4 and 20.6 and 22.3 and 30.5 and 23.5 and 20.2 and 25.8 and 23.8 and 28.5 and 25.6 and 21.6 and 32.3 and 14.5 and 28.2 | LEFT PLICOMETRY 2/3 T30 [7]: 26.4 and 20.3 and 36.5 and 22.5 and 24.8 and 26.6 and 25.8 and 38.6 and 31.6 and 28.5 and 25.3 and 22.0 and 25.5 and 18.3 and 29.5 and 27.6 and 20.6 and 24.9 and 23.0 (2×) and 33.5 and 37.4 and 39.3 and 21.2 and 30.2 | LEFT PLICOMETRY 3/3 T30 [7]: 32.8 and 19.7 and 35.8 and 25.7 and 28.7 and 31.2 and 24.7 and 39.5 and 26.0 and 33.8 (2×) and 33.2 and 18.5 (2×) and 31.4 (2×) and 18.2 and 35.1 and 15.7 and 32.0 and 39.4 and 20.8 and 38.8 and 26.8 and 36.0 | RIGHT PLICOMETRY 1/3 T30 [7]: 28.2 and 18.9 and 15.5 and 33.2 and 22.4 and 18.8 and 23.6 and 17.5 and 24.4 and 24.2 and 28.8 and 26.5 and 17.4 and 22.7 and 21.8 and 31.2 and 22.6 and 20.5 (2×) and 25.8 and 21.7 and 27.6 and 24.3 and 32.5 and 14.5 | RIGHT PLICOMETRY 2/3 T30 [7]: 34.6 and 28.2 and 24.0 and 30.2 and 18.2 and 25.4 (2×) and 34.0 and 23.7 and 33.5 and 32.9 and 30.0 and 27.6 and 21.7 and 26.5 and 20.0 and 30.8 and 31.0 and 23.9 and 22.3 and 38.1 and 40.0 and 26.2 and 35.6 and 24.3 | RIGHT PLICOMETRY 3/3 T30 [7]: 40.2 and 39.9 and 23.6 and 30.4 and 27.6 (2×) and 31.5 and 36.9 and 38.4 and 38.5 and 36.2 and 33.6 and 26.3 and 26.5 and 23.7 and 31.2 and 37.6 and 19.6 and 36.4 and 17.5 and 30.5 and 39.8 and 20.4 and 34.0 and 25.6 | LEFT PLICOMETRY 1/3 T60 [8]: 20.5 and 15.0 and 30.9 and 22.1 (2×) and 18.3 and 23.1 and 17.0 and 23.9 (2×) and 23.2 and 27.6 and 23.6 and 16.5 and 18.4 and 21.2 and 30.5 and 19.8 and 25.3 and 20.7 and 26.2 and 21.5 and 30.4 and 14.0 and 27.7 | LEFT PLICOMETRY 2/3 T60 [8]: 25.7 and 19.6 and 35.8 and 21.8 and 24.1 and 25.9 and 25.1 and 37.9 and 30.9 and 27.8 and 24.6 and 21.3 and 24.8 and 17.6 and 28.8 and 26.9 and 19.9 and 24.2 and 22.4 and 32.4 and 36.7 and 22.3 and 38.6 and 20.5 and 29.5 | LEFT PLICOMETRY 3/3 T60 [8]: 31.9 and 18.8 and 34.9 and 24.8 and 27.8 and 30.3 and 23.8 and 38.6 and 25.1 and 33.2 and 32.3 and 17.6 and 29.6 and 17.2 and 30.5 and 32.9 and 18.5 and 34.2 and 14.8 and 31.0 and 38.5 and 19.9 and 37.9 and 25.9 and 35.1 | RIGHT PLICOMETRY 1/3 T60 [8]: 27.5 and 20.5 and 15.0 and 32.1 and 22.0 and 17.8 and 23.0 and 16.7 (2×) and 23.7 and 24.6 and 27.6 and 26.6 and 21.5 and 21.7 and 28.9 and 21.4 and 18.4 and 24.1 and 21.3 and 28.0 and 23.9 and 19.9 and 31.7 and 13.8 | RIGHT PLICOMETRY 2/3 T60 [8]: 34.0 and 26.3 and 23.2 and 29.4 and 17.3 and 26.0 and 32.8 and 23.5 and 33.6 and 32.1 and 30.0 and 26.5 and 20.9 and 26.7 and 20.0 and 27.8 and 29.7 and 25.6 (2×) and 23.9 and 21.8 and 37.7 and 40.0 and 35.3 and 23.8 | RIGHT PLICOMETRY 3/3 T60 [8]: 38.9 and 37.4 (2×) and 22.3 (2×) and 29.4 and 27.0 and 32.1 and 35.2 and 36.8 and 26.9 and 35.6 and 33.2 (2×) and 25.3 and 26.6 and 29.5 and 35.4 and 18.2 and 34.1 and 17.0 and 30.9 and 39.8 and 19.7 and 23.7
